Measured values: patent publication US20020137154A1, “Methods for improving cell growth and alcohol production during fermentation” (priority 2000, published 2002)

Assays:
[1] = test system: recombinant Escherichia coli KO11; assay: Batch fermentation of E. coli KO11 in 1% CSL medium and xylose with nutrient additives: ethanol production and cell growth; type: cell-based; conditions: for activity at 2000 µg/mL: Escherichia coli
Procedure: (§1) Two types of media were tested: 1% CSL and Luria broth (LB). Each contained 97 g of either xylose or glucose per liter. Luria Broth consists of, per liter: 10 g Difco® Tryptone, 5 g Difco® Yeast Extract and 5 g NaCl. The 1% CSL medium consists of Corn Steep Liquor (1% w/v) plus mineral salts (mineral salts per liter: 1 g of KH2PO4. 0.5 g of K2HPO4, 3.1 g of (NH4)2SO4, 0.4 g of MgCl2·6H2), and 20 mg FeCl3·6H2O).
(§2) Luria Broth was prepared by autoclaving a 2× nutrient stock containing, per liter: 20 g Difco® Tryptone, 10 g Difo® Yeast Extract, and 10 g NaCl. Sugars (xylose or glucose) were autoclaved separately. A 1% CSL medium was prepared as follows: Commercial Corn Steep Liquor (CSL; 50% dry weight/50% water) was diluted with tap water to make a 20X stock containing 100 g dry weight of Corn Steep Liquor/L and was adjusted to pH 7.2 with NaOH (50%). After sterilization by autoclaving, the 20X CSL stock was clarified by centrifugation at 5000×g for 10 minutes. Magnesium was added as a 100× stock solution (40 g/L MgCl2·6H2O). Iron was added as a 1000× stock solution made by dissolving 20 g FeCl3·6H2O in 175 mL of HCl and adjusting to 1 L with sterile water. Nitrogen, sulfur and phosphorus were added using a 20× stock solution containing the following (per liter): 20 g of KH2PO4, 10 g of K2HPO4 and 62 g of (NH4)2SO4. Stock solutions containing minerals were sterilized separately by autoclaving. Final media was prepared by adding 750 mL of water to 1 L bottle containing 100 g of xylose or glucose.
Inocula were grown in same media used for fermentation and were prepared as follows. Three colonies from a fresh plate were used to inoculate seed cultures: 250-mL flask containing 100 mL medium. These cultures were grown with agitation (120 rpm) for 12-16 hours at 35° C. to a final OD550nm of approximately 2.0-2.5. Cells were harvested by centrifugation at 5000×g for 5 minutes, and resuspended in fresh media to an OD550nm of 0.1. The resulting suspension was distributed into 500-mL beakers containing 345 ml each of fermentation medium. Acetaldehyde was added as indicated. Batch fermentations (35° C., 100 rpm) were maintained at pH 6.5 by the automatic addition of 2N KOH. Cell mass, ethanol, and base addition (2N KOH) were recorded during 96 hours of incubation. […]
(§3) Additives (e.g., as listed in Table 1) were dissolved in 5 mL di-H2O. Solutions with pH lower than 5 were neutralized to pH 6.5 with 2N KOH. Nutritional supplements were then filter-sterilized (0.45 μm filter disk) directly into the fermentation vessel containing the culture. The final concentration of all additives in the culture medium was 2 g/L unless otherwise indicated.
(§4) Cell mass was estimated by measuring OD550nm using Baush & Lomb® Spectronic 70 spectrophotometer. […] Ethanol was measured by gas chromatography using a Varian® 3400 CX gas chromatograph with 1-propanol as an internal standard.
(§5) Tables 1, 3, and 5 show time to completion of fermentation, ethanol production, and volumetric productivity of the fermentation for all concentrations of the compound and the control. Maximum ethanol production is shown in grams/liter (g/L). The ethanol yield is shown in grams of ethanol/grams of added sugar. Maximum volumetric productivity is shown in grams ethanol/(liter)(hour). The average productivity is calculated form the start of fermentation to the completion of fermentation is grams ethanol/(liter)hour).
Tables 2, 4, and 6 show the initial growth of the cells (OD taken after the first 24 hours of fermentation) and the maximum cell density (the time which culture reaches the maximum OD value). […]

[2] = test system: recombinant Escherichia coli KO11; assay: Batch fermentation of E. coli KO11 in 1% CSL medium and glucose with nutrient additives: ethanol production and cell growth; type: cell-based; conditions: for activity at 2000 µg/mL: Escherichia coli
Procedure: as §1, §2
Inocula were grown in same media used for fermentation and were prepared as follows. Three colonies from a fresh plate were used to inoculate seed cultures: 250-mL flask containing 100 mL medium. These cultures were grown with agitation (120 rpm) for 12-16 hours at 35° C. to a final OD550nm of approximately 2.0-2.5. Cells were harvested by centrifugation at 5000×g for 5 minutes, and resuspended in fresh media to an OD550nm of 0.1. The resulting suspension was distributed into 500-mL beakers containing 345 ml each of fermentation medium. Acetaldehyde was added as indicated. Batch fermentations (35° C., 100 rpm) were maintained at pH 6.5 by the automatic addition of 2N KOH. Cell mass, ethanol, and base addition (2N KOH) were recorded during 96 hours of incubation.
Equivalent amounts of distilled water were added instead of the acetaldehyde in control experiments.
as §3, §4, §5
Tables 2, 4, and 6 show the initial growth of the cells (OD taken after the first 24 hours of fermentation) and the maximum cell density (the time which culture reaches the maximum OD value).
Acetaldehyde was added to the fermentation medium at five different concentrations and time points. […] Where two additions are indicated, the first volume was added at the start of fermentation and the second was added after 8 hours of fermentation.

[3] = 1% CSL+xylose, additive 2 g/L unless indicated
[4] = 24 h, read-out: Initial Growth (OD @ 24 h) % Control, 1% CSL+xylose, additive 2 g/L unless indicated
[5] = read-out: Ethanol Production Maximum % Control, 1% CSL+xylose, additive 2 g/L unless indicated
[6] = read-out: Maximum Cell Density % Control, 1% CSL+xylose, additive 2 g/L unless indicated
[7] = read-out: Volumetric Productivity Average % Control, 1% CSL+xylose, additive 2 g/L unless indicated
[8] = read-out: Volumetric Productivity Maximum % Control, 1% CSL+xylose, additive 2 g/L unless indicated
[9] = 1% CSL+glucose, additive 2 g/L unless indicated
[10] = 24 h, read-out: Initial Growth (OD @ 24 h) % Control, 1% CSL+glucose, additive 2 g/L unless indicated
[11] = read-out: Ethanol Production Maximum % Control, 1% CSL+glucose, additive 2 g/L unless indicated
[12] = read-out: Maximum Cell Density % Control, 1% CSL+glucose, additive 2 g/L unless indicated
[13] = read-out: Volumetric Productivity Average % Control, 1% CSL+glucose, additive 2 g/L unless indicated
[14] = read-out: Volumetric Productivity Maximum % Control, 1% CSL+glucose, additive 2 g/L unless indicated

SMILES | Ethanol Production Maximum [1, 3] [g/L] | Ethanol yield [1, 3] | Initial Growth (OD @ 24 h) OD [1, 3] [OD] | Maximum Cell Density OD [1, 3] [OD] | Maximum Cell Density Time [1, 3] [h] | Volumetric Productivity Average [1, 3] | Volumetric Productivity Maximum [1, 3] | activity at 2000 µg/mL [1, 4] [%] | activity at 2000 µg/mL [1, 5] [%] | activity at 2000 µg/mL [1, 6] [%] | activity at 2000 µg/mL [1, 7] [%] | activity at 2000 µg/mL [1, 8] [%] | Ethanol Production Maximum [2, 9] [g/L] | Ethanol yield [2, 9] | Initial Growth (OD @ 24 h) OD [2, 9] [OD] | Maximum Cell Density OD [2, 9] [OD] | Volumetric Productivity Average [2, 9] | Volumetric Productivity Maximum [2, 9] | activity at 2000 µg/mL [2, 10] [%] | activity at 2000 µg/mL [2, 11] [%] | also measured
O=C(O)CC(O)(CC(=O)O)C(=O)O [Citrate] | 28.80 | 0.296 grams of ethanol/grams of added sugar | 2.12 | 2.47 | 96 | 0.300 grams ethanol/(liter)(hour) | 0.339 grams ethanol/(liter)(hour) | 104 | 95.7 | 98.1 | 95.7 | 92 | 32.87 | 0.338 grams of ethanol/grams of added sugar | 2.43 | 2.58 | 0.342 grams ethanol/(liter)(hour) | 0.502 grams ethanol/(liter)(hour) | 91 | 88.9 | activity at 2000 µg/mL [2, 12]: 96%; activity at 2000 µg/mL [2, 13]: 88.9%; activity at 2000 µg/mL [2, 14]: 97.8%
N[C@@H](CC(=O)O)C(=O)O [Aspartate, aspartate] | 27.90 | 0.287 grams of ethanol/grams of added sugar | 1.76 | 2.45 | 72 | 0.291 grams ethanol/(liter)(hour) | 0.304 grams ethanol/(liter)(hour) | 86.3 | 92.7 | 97.2 | 92.7 | 82.4 | 41.79 | 0.430 grams of ethanol/grams of added sugar | 2.86 | 3.79 | 0.580 grams ethanol/(liter)(hour) | 0.759 grams ethanol/(liter)(hour) | 107 | 113 | activity at 2000 µg/mL [2, 12]: 141%; activity at 2000 µg/mL [2, 13]: 151%; activity at 2000 µg/mL [2, 14]: 148%
O=C(O)CC(C(=O)O)C(O)C(=O)O (stereo not shown) [Isocitrate] | 33.02 | 0.340 grams of ethanol/grams of added sugar | – | 3.01 | 96 | 0.344 grams ethanol/(liter)(hour) | 0.435 grams ethanol/(liter)(hour) | – | – | – | – | – | 33.95 | 0.349 grams of ethanol/grams of added sugar | – | – | 0.471 grams ethanol/(liter)(hour) | 0.588 grams ethanol/(liter)(hour) | – | – | activity at 2000 µg/mL ([1]; read-out: Maximum Cell Density % Control): 119%; activity at 2000 µg/mL ([1]; read-out: Volumetric Productivity Maximum % Control): 118%; activity at 2000 µg/mL ([2]; read-out: Ethanol Production Maximum % Control): 91.8%; activity at 2000 µg/mL ([2]; read-out: Volumetric Productivity Average % Control): 122%
O=C(O)CC(O)C(=O)O (stereo not shown) [Malate, malate] | 24.43 | 0.252 grams of ethanol/grams of added sugar | 1.71 | 2.42 | 96 | 0.255 grams ethanol/(liter)(hour) | 0.274 grams ethanol/(liter)(hour) | 83.9 | 81.2 | 96.3 | 81.2 | 74.5 | 27.58 | 0.284 grams of ethanol/grams of added sugar | 3.19 | 3.39 | 0.287 grams ethanol/(liter)(hour) | 0.498 grams ethanol/(liter)(hour) | 119 | 74.6 | activity at 2000 µg/mL [2, 12]: 126%; activity at 2000 µg/mL [2, 13]: 74.6%; activity at 2000 µg/mL [2, 14]: 97%
O=C(O)CCC(=O)O [Succinate, succinate] | 35.00 | 0.360 grams of ethanol/grams of added sugar | 2.11 | 3.12 | 96 | 0.365 grams ethanol/(liter)(hour) | 0.400 grams ethanol/(liter)(hour) | – | – | – | – | – | 30.13 | 0.310 grams of ethanol/grams of added sugar | 2.69 | 2.66 | 0.314 grams ethanol/(liter)(hour) | 0.511 grams ethanol/(liter)(hour) | – | – | Ethanol Production Maximum % Control [1, 3]: 116.35%; Initial Growth (OD @ 24 h) % Control [1, 3]: 103.40%; Maximum Cell Density % Control [1, 3]: 124.13%; Time to completion [1, 3]: >96 h; Volumetric Productivity Average % Control [1, 3]: 116.35%; Volumetric Productivity Maximum % Control [1, 3]: 108.536%; Ethanol Production Maximum % Control [2, 9]: 81.46%; Initial Growth (OD @ 24 h) % Control [2, 9]: 100.47%; Maximum Cell Density % Control [2, 9]: 98.99%; Maximum Cell Density Time [2, 9]: 72 h; Time to completion [2, 9]: 96 h; Volumetric Productivity Average % Control [2, 9]: 81.46%; Volumetric Productivity Maximum % Control [2, 9]: 99.45%
